Where two headings read alike, the source gives them in different places. Marks after values point to notes of the source that are not given here.
Legend:
Solubility in pure water = type: physicochemical; conditions: Example 2
Description: A measured amount of Dex-Vi was partially dissolved in pure water. The solution was then centrifuged. The supernatant was decanted, and the volume was measured. The remainder of the solid was dried in a vacuum oven and weighed. Finally, the weight of the remaining Dex-Vi was subtracted from the initial added mass to obtain the amount dissolved in the supernatant, permitting calculation of the maximum soluble concentration.

[1] = Electrochemical impedance spectroscopy (EIS); type: physicochemical; conditions: for EIS D / EIS i^0 / EIS k^0: Example 2
Description: (§1) CV and EIS experiments were ran using a PalmSens4 potentiostat with the PSTrace software. Electrochemical experiments were performed in 1.0 M NaCl supporting electrolyte using 15 mM of active material at room temperature (18° C.). Formal potentials for the redox couples were estimated by taking the average potential between the cathodic and anodic peak. Diffusional behavior was investigated by varying the scan rate between 10-100 mV·s^−1 for the first electron reduction and 50-200 mV·s^−1 for the second electron reduction, and the diffusion constants of the reduced and oxidized states (D^R and D^O) were determined via the Randles-Sevcik equation assuming ideal reversible behavior (FIG. 12D). Potentiostatic EIS measurements were used for determination of a combined diffusional constant of the reduced and oxidized states (D^EIS) and of the standard electron kinetic rate constant (k^o). These EIS measurements were performed at the formal reduction potential (held for 30 seconds before measurement) in which the concentration of the two redox states at the electrode surface were assumed to be the same and equal to half of the initially prepared redox species concentration.
(§2) A glassy carbon working electrode (CH Instruments, 0.0707 cm^2), a saturated calomel reference electrode (SCE, CH Instruments, +0.241 V vs. SHE), and a platinum wire counter electrode were used for both CV and EIS measurements. The working electrode was polished with 1 μm, 0.3 μm, and 0.05 μm alumina slurry successively. All electrodes were rinsed with deionized water in between measurements.
Potentiostatic EIS measurements were taken at the formal potential in which the reduction and oxidation processes are at equilibrium and the concentrations of the reduced and oxidized states can be assumed equal. This permitted simple calculation of the standard kinetic rate constant (k^o) via Eqn. 2 where R is the ideal gas constant, T is temperature, n is number of electrons, RCT is the charge-transfer resistance, F is Faraday's constant, A is the electrode surface area in cm^2, and C is the concentration of either the oxidized or reduced form at the electrode surface in mole cm^−3 (which is assumed to be half of the initially prepared redox species concentration, C═C^O═C^R=0.5 Cinitial).
A combined diffusion coefficient of the reduced and oxidized state (D^EIS) can also be determined using Eqn. 3, where σ is the Warburg diffusional impedance variable and all other variables have the previously defined meaning.
RCT and σ can be determined by fitting the impedance spectrum to the ideal Randles equivalent circuit for a 3-electrode system where Ru is the uncompensated resistance between the working and reference electrode, RCT is the charge transfer resistance between the working electrode and the redox species, WD is the Warburg diffusional element, and CPE is the constant phase element that represents capacitive behavior of the working electrode.
The raw data was fitted based on this equivalent circuit using the Z-Fitting tool on the PSTrace software and with the Levenberg-Marquardt algorithm across the entire measured frequency range. For the second redox state, D2^EIS were 3.6×10^−6 cm^2·s^−1 and 3.8×10^−6 cm^2·s^−1 and k2^o were 0.13 cm·s^−1 and 0.23 cm·s^−1 for Dex-Vi and BTMAP-Vi, respectively.

Viscosity (rheometer) = type: physicochemical; conditions: 1M, 25° C.
Description: Viscosity measurements were carried out using an Ares G2 rheometer (TA Instruments) with an advanced Peltier system at 25° C.

Degradation in 1M KOH = type: physicochemical
[2] = Cyclic voltammetry (formal potentials, Randles-Sevcik diffusion coefficients); type: physicochemical
Description: as §1, §2
CVs were taken at various scan rates in order to determine the diffusion coefficients via the Randles-Sevcik relation (Eqn. 1) where ip is the peak current in Amps, n is number of electrons transferred, F is Faraday's constant, A is electrode surface area in cm^2, C is the redox species concentration in mole·cm^−3, R is the ideal gas constant, T is temperature, D is the diffusion coefficient, and v is scan rate in V/s. The anodic peak current […] determines the diffusion coefficient of the reduced state (D^R) while the cathodic peak current (ip,a) determines the diffusion coefficient of the oxidized state (D^O). ip=0.4463n^3/2·F^3/2·A·C·R^−1/2·T^−1/2·D^1/2·v^1/2 Eqn. 1

[3] = same electrolyte conditions; cited from earlier work
[4] = cited from earlier work; for Anolyte-limiting RFB Stability / RFB Viologen Molarity (1e^−): Table 1, comparison anolytes
[5] = Selemion DSV membrane; cited from earlier work
[6] = Table 1, MV; cited from earlier work
[7] = Table 1, MV; cited from earlier work; remark: listed apart in the source

Row | SMILES | Water Solubility (Solubility in pure water) [M] | EIS D [1] [cm^2/s] | EIS i^0 [1] [A] | EIS k^0 [1] [cm/s] | Viscosity at 1M, 25° C. (Viscosity (rheometer)) [cP] | Degradation in 1M KOH, k (Degradation in 1M KOH) [s⁻¹] | further results
1 | O=S(=O)([O-])CC(O)C[n+]1ccc(-c2cc[n+](CC(O)CO)cc2)cc1.[Cl-] (centres unmarked) [DiOH-SHOP-Vi] | <0.5 | 5.419E−06 | 4.06E−03 | 0.0794 | – | – | –
2 | OCCCC[n+]1ccc(-c2cc[n+](CCCCO)cc2)cc1.[Cl-].[Cl-] [ButOH-Vi] | 1.36 | 2.36E−05 | 1.25E−05 | 0.000244 | 1.6 | – | –
3 | C[N+](C)(C)CC(O)C[n+]1ccc(-c2cc[n+](CC(O)CS(=O)(=O)[O-])cc2)cc1.[Cl-].[Cl-] (centres unmarked) [Dex-SHOP-Vi] | 1.27 | 4.497E−06 | 1.57E−03 | 0.0307 | – | – | –
4 | C[N+](C)(C)CC(O)C[n+]1ccc(-c2cc[n+](CC(O)CO)cc2)cc1.[Cl-].[Cl-].[Cl-] (centres unmarked) [Dex-DiOH-Vi] | 1.73 | 5.562E−06 | 6.20E−03 | 0.121 | 3.9 | 4.06e-06 | –
5 | O=S(=O)([O-])CC[n+]1ccc(-c2cc[n+](CC(O)CO)cc2)cc1.[Cl-] (centres unmarked) [DiOH-EtS-Vi] | 1.26 | 8.134E−06 | 7.76E−03 | 0.152 | 2.9 | 4.4e-06 | –
6 | OCC(O)C[n+]1ccc(-c2cc[n+](CC(O)CO)cc2)cc1.[Cl-].[Cl-] (centres unmarked) [DiOH-Vi] | 1.99 | 6.622E−06 | 1.14E−03 | 0.0222 | 3.0 | 2.296e-06 | –
7 | O=S(=O)([O-])CC[n+]1ccc(-c2cc[n+](CCS(=O)(=O)[O-])cc2)cc1 [EtS-Vi] | 0.53 | 5.2921E−06 | 3.47E−03 | 0.0677 | – | – | –
8 | OCC[n+]1ccc(-c2cc[n+](CCO)cc2)cc1.[Cl-].[Cl-] [EtOH-Vi] | 2.51 | 9.868E−06 | 4.53E−03 | 0.0885 | 2.4 | – | –
9 | C[N+](C)(C)CCC[n+]1ccc(-c2cc[n+](CCC[N+](C)(C)C)cc2)cc1.[Cl-].[Cl-].[Cl-].[Cl-] [BTMAP-Vi, bis(3-trimethylammonio)propyl viologen tetrachloride, reference compound] | – | – | – | – | – | – | first electron formal potential (E1^0) ([2]; 15 mM in 1.0 M NaCl, 18° C.): −0.349 V vs. SHE; E1^0 ([2]; Table 1): −0.349 V vs. SHE; E2^0 ([2]; Table 1): −0.713 V vs. SHE; reduced state diffusion coefficient (D1^R) ([2]; first redox state, 3+ species): 2.7×10^−6 cm^2·s^−1; oxidized state diffusion coefficient (D1^O) ([2]; first redox state, 4+ species): 2.4×10^−6 cm^2·s^−1; D2^O ([2]; second redox state): 2.3×10^−6 cm^2·s^−1; D2^R ([2]; second redox state): 2.5×10^−6 cm^2·s^−1; second electron formal potential (E2^0) ([2]; vs. SHE, 15 mM in 1.0 M NaCl, 18° C.): −0.713 V; reported symmetric cell decay rate [3]: 0.0016 % per day; reported concentration when both electrons are utilized ([4]; DeBruler et al., 2017): 0.25 M; Anolyte-limiting RFB Stability [4]: 36.5% decay/year; RFB Viologen Molarity (1e^−) [4]: 1.5; k1^0 ([1]; Table 1): 0.089 cm/s; combined diffusion coefficient (D1^EIS) ([1]; first reduction): 4.1×10^−6 cm^2·s^−1; standard rate constant (k1^0) ([1]; first reduction): 0.089 cm/s; D2^EIS ([1]; second redox state): 3.8×10^−6 cm^2·s^−1; k2^o ([1]; second redox state): 0.23 cm/s; permeance, reported value [5]: 6.7×10^−10 cm^2·s^−1
10 | C[n+]1ccc(-c2cc[n+](C)cc2)cc1 [MV] | – | – | – | – | – | – | Anolyte-limiting RFB Stability [4]: >547.5%* % decay/year; RFB Viologen Molarity (1e^−) [4]: 0.5; k1^0 [6]: 0.00028 cm/s; E1^0 [7]: −0.450/NA V vs. SHE
